In US5405839A, “Vitamin B12 derivative, preparation process thereof, and use thereof” (Teijin Limited, priority 1989, dated 1995):
pKi: −log10 of the molar value.

Key:
diol dehydrase [1] = target: T1, diol dehydrase (Klebsiella oxytoca, UniProt Q59470+Q59471+Q59472); assay: Assay of coenzyme activity (kcat) with diol dehydrase; type: biochemical, Klebsiella pneumoniae ATCC 8724; settings: for coenzyme activity (in words): diol dehydrase; for Kcat (coenzyme activity): diol dehydrase, 1,2-propanediol substrate, 37° C., pH 8.0; method 1) or 2); for Kcat, activity relative to the vitamin B12 coenzyme (adenosylcobalamin): relative to adenosylcobalamin = 100
T1 construct: (alpha beta gamma)2 hexamer
T1 sequence (Q59470 1-554): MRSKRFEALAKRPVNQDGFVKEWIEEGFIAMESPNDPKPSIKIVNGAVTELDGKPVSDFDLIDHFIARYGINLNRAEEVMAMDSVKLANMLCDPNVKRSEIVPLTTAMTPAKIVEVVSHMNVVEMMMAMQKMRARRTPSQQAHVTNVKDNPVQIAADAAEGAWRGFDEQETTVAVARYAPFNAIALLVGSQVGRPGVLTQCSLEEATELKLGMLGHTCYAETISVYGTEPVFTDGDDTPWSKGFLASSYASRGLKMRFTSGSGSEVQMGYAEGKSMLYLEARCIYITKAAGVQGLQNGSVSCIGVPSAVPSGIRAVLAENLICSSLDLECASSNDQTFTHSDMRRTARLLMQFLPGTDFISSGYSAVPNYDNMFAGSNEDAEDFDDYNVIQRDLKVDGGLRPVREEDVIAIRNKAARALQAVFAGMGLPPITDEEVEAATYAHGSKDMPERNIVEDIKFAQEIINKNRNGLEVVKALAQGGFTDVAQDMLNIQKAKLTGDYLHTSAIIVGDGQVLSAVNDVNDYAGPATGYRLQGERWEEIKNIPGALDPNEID
T1 sequence (Q59471 1-224): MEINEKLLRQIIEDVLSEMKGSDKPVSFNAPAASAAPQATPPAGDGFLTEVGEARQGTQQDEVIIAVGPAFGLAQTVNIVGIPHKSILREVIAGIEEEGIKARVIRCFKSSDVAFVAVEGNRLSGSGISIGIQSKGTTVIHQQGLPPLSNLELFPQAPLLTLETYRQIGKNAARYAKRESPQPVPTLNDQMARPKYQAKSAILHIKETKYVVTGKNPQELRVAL
T1 sequence (Q59472 1-173): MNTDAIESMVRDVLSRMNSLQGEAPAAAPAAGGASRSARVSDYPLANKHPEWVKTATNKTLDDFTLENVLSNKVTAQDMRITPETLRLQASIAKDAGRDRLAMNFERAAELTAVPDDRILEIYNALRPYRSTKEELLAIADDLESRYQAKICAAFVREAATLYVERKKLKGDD
Procedure: The coenzyme activities of vitamin B12 derivatives prepared in Examples 1 to 10 were assayed according to the two methods shown below.
1) Assay of coenzyme activity by using 3-methyl-2-benzothiazolinonehydrazone
The assay was carried out according to the method of Toraya et al. (J. Biol. Chem., vol. 252, p. 963-970, 1977).
(§1) As the enzyme, diol dehydrase was employed. […] Diol dehydrase was highly purified from Klebsiella pneumoniae ATCC 8724 according to the method of Poznanskaya (Arch. Biochem. Biophys., vol. 194, p. 379-386, 1979) and adjusted to a solution of 0.3 Unit/ml with 0.05 M potassium phosphate buffer (pH 8.0). As the substrate of this enzyme, a 1 M aqueous 1,2-propanediol solution was employed.
(§2) In an ice-water bath, 0.1 ml of the substrate solution, 0.1 ml of 0.5 M aqueous potassium chloride solution, 0.1 ml of diol dehydrase solution, and 0.6 ml of 0.05 M potassium phosphate buffer (pH 8.0) were mixed, and to the mixture were added, in the dark, 0.1 ml of 0.2 mM vitamin B12 coenzyme (adenosylcobalamin), vitamin B12 (cyanocobalamin) or each vitamin B12 derivative prepared in Examples 1 to 10. After the mixture was incubated in the dark at 37° C. for 10 minutes, 1 ml of 0.1M potassium citrate buffer (pH 3.6) was added to stop the enzyme reaction, and then 0.5 ml of 0.1% aqueous 3-methyl-2-benzothianolinonehydrazone was added, followed by a continuation of the incubation at 37° C. for 15 minutes. To the mixture was added 1 ml of water, and the absorbance at 305 nm was measured by a Shimazu Double-beam Spectrophotometer Model UV-140-02 Model and the coenzyme activity (kcat) was calculated.
2) Assay of coenzyme activity using alcohol dehydrogenase and reduced nicotinamide adenine dinucleotide
The assay was carried out according to the method of Toraya et al. (Biochemistry, vol. 18, p. 417-426, 1979).
The diol dehydrase employed was diluted with 0.05 M potassium phosphate buffer (pH 8.0) to 0.15 Unit/ml, and 1M aqueous propanediol was used as the substrate solution. By using a 0.05 M potassium phosphate buffer (pH 8.0), 0.5 mg/ml of alcohol dehydrogenase and a 2 mM reduced nicotinamide adenine dinucleotide were prepared. To a mixture of 0.1 ml of the substrate solution, 0.1 ml of the alcohol dehydrogenase solution, 0.1 ml of the reduced nicotinamide adenine dinucleotide solution, and 0.5 ml of the 0.05 M potassium phosphate buffer (pH 8.0) was added 0.1 ml of the diol dehydrase solution. After the mixture was incubated at 37° C. for 5 minutes, there were added, in the dark, 0.1 ml of 0.2 mM vitamin B12 coenzyme (adenosylcobalamin), vitamin B12 (cyanocobalamin) or each vitamin B12 derivative prepared in Examples 1 to 10, and the coenzyme activity (kcat) was calculated by continuously monitoring the decrease in absorbance at 340 nm, by a Union Spectrophotometer SM-401.
The coenzyme activity is higher when the kcat is larger. The activity relative to the vitamin B12 coenzyme (adenosylcobalamin) is also shown in % in Table 1.

diol dehydrase [2] = target: T1, diol dehydrase; assay: Inhibition constant (Ki) of vitamin B12 derivative against vitamin B12 coenzyme, Lineweaver-Burk plot; type: biochemical; settings: against varied adenosylcobalamin
Procedure: as §1, §2
Namely, in the method 1) in Example 11, by adding adequately varied concentration of the vitamin B12 coenzyme (adenosylcobalamin) to a fixed concentration of each vitamin B12 derivative, the enzyme activity was respectively assayed and the inhibition constant (Ki) was determined by the Lineweaver-Burk plot. The inhibitory activity is stronger when the Ki is smaller.

diol dehydrase [3] = target: T1, diol dehydrase; assay: Michaelis constant (Km) of vitamin B12 derivative, Lineweaver-Burk plot; type: biochemical, Klebsiella pneumoniae ATCC 8724
Procedure: as §1, §2
Namely, in the method 1) in Example 11, the respective enzyme activities were assayed by suitably varying the concentration of the vitamin B12 derivative, and Michaelis constant (km) was determined by the Lineweaver Burk plot. The affinity (binding ability) for the enzyme is higher when the Km is smaller.

[4] = system: mouse leukemia L1210 cells; assay: Viability of cultured L1210 cells on day 9 by Trypan blue staining; type: cell-based; settings: day 9, MTX 200 nM only; 12960 min
Procedure: The mouse leukemia L1210 cells employed for this experiment were grown and maintained intraperitoneally in DBA mice, taken out together with ascites and aseptically cultured as adapted for RPMI-1640 medium for animal cell culture supplemented with fetal bovine serum (5 v/v %) and ethanolamine (1.2 mg/liter), but devoid of vitamin B12 (cyanocobalamin). Also, 100,000 units of penicillin and 100 mg of streptomycin were added as the antimicrobial agent, per liter of this medium. The L1210 cells grown and adapted in vitro were further adapted to the above-mentioned medium containing 7.0 g/liter of bovine serum albumin in place of the fetal bovine serum, following the method of Fujii et al. (J. Biol. Chem., vol. 256, p. 10329-10334, 1981), and then used for experiment.
To examine the L1210 growth inhibitory activities of the vitamin B12 derivatives synthesized in Examples 2 and 5, first L1210 cells adapted to albumin were inoculated at a density of 5×10^4 cells/ml into the same medium containing folic acid at 10 μM concentration, and a preculture was carried out under a humidified atmosphere of CO2 /air (5%/95%) at 37° C. for 3 days. The cells grown were centrifuged, then washed twice with the same medium containing no folic acid, to prepare an inoculum cell suspension of about 5×10^6 cells/mi. […]

Compound	coenzyme activity (in words) (diol dehydrase [1])	pKi (diol dehydrase [2])	Kcat (coenzyme activity) (diol dehydrase [1])	Kcat, activity relative to the vitamin B12 coenzyme (adenosylcobalamin) (diol dehydrase [1])	Km (diol dehydrase [3])	cells found dead (Trypan blue) [4]
2-(5,6-dimethylbenzimidazolyl)ethyladenosylcobinamide phosphoric acid [Example 6]	no coenzyme activity	4.28				
3-(5,6-dimethylbenzimidazolyl)propyladenosylcobinamide phosphoric acid [Example 7]			199 s⁻¹	59%	0.82 µM	
3-imidazolylpropyladenosylcobinamide phosphoric acid [Example 10]		6.00	3 s⁻¹	0.9%	1.1 µM	
4-(5,6-dimethylbenzimidazolyl)butyladenosylcobinamide phosphoric acid [Example 8]			167 s⁻¹	50%	11.2 µM	
6-(5,6-dimethylbenzimidazolyl)hexyladenosylcobinamide phosphoric acid [Example 9]	no coenzyme activity	4.42				
CN(Cc1cnc2nc(N)nc(N)c2n1)c1ccc(C(=O)N[C@@H](CCC(=O)O)C(=O)O)cc1 [MTX, methotrexate]						20%
C/C1=C2/[N-][C@H]([C@H](CC(N)=O)[C@@]2(C)CCC(=O)NC[C@@H](C)OP(=O)([O-])O[C@H]2[C@@H](O)[C@@H](n3cnc4cc(C)c(C)cc43)O[C@@H]2CO)[C@]2(C)N=C(/C(C)=C3N=C(/C=C4N=C1[C@@H](CCC(N)=O)C\4(C)C)[C@@H](CCC(N)=O)[C@]\3(C)CC(N)=O)[C@@H](CCC(N)=O)[C@]2(C)CC(N)=O.[CH2-][C@H]1O[C@@H](n2cnc3c(N)ncnc32)[C@H](O)[C@@H]1O.[Co] [Vitamin B12 coenzyme, adenosylcobalamin, reference compound]			337 s⁻¹	100%	0.8 µM	
